One data set addresses T1, Substance-K receptor (Homo sapiens, UniProt P21452).
T1 sequence (P21452 whole entry): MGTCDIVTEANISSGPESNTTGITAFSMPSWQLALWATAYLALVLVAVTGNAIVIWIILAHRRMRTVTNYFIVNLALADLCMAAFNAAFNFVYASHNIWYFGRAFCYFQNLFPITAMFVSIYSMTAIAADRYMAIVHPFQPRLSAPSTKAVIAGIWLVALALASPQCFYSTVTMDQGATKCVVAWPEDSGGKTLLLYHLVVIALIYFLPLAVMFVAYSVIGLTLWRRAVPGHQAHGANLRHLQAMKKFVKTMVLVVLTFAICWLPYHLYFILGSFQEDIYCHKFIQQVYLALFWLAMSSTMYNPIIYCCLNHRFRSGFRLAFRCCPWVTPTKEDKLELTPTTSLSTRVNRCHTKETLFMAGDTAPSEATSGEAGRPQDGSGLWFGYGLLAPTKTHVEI
In words: Displacement of [125I]neurokinin A from human NK2 receptor after 30 mins. (In general: Displacement assays read how much labelled ligand stays bound in the presence of the test substance.)

Data set [1] can be described thus: Aqueous solubility of the compound at pH 6.4. The class given is physicochemical.
The nature of data set [2]: Permeability across apical to basolateral side in human Caco2 cells at 100 uM. It counts as ADME, cell-based. To be noted: Caco-2, read-out: permeability. (In general: Caco-2 monolayers are a common model of the intestinal barrier.)
Data set [3] in a line: Membrane permeability by PAMPA assay. The note with it: read-out: permeability. The class given is ADME. (In general: PAMPA measures passive passage across an artificial lipid membrane.)

≈ marks a conversion by molar mass, not a printed value.

What is called Ki is a dissociation constant, usually derived from enzyme kinetics or from competition with a known ligand. Low readings indicate higher affinity, high ones lower affinity. By solubility is commonly meant how much of the substance goes into solution per volume. A lower solubility goes with a poorly soluble substance.

The compound `O=C(NC1(C(=O)N[C@@H](Cc2ccccc2)C(=O)NCC2CCN(CC3CCOCC3)CC2)CCCC1)c1ccc(-n2cccc2)cc1` gave a Ki at Substance-K receptor of 0.234 nM. For the same compound, the solubility in data set [1] was 1450 µg/mL (≈ 2.27 mM). Also, in data set [2], the Papp A→B at 100 µM was under 1 ×10⁻⁶ cm/s.
`O=C(NC1(C(=O)N[C@@H](Cc2ccccc2)C(=O)NCC2CCN(CC3CCOCC3)CC2)CCCC1)c1ccc(-n2cccc2)cc1Cl` had an inhibition constant (Ki) on Substance-K receptor of 3.98 nM. The Papp in data set [3] came out at 0.16 ×10⁻⁶ cm/s. The compound further came in with a solubility in data set [1] of over 2820 µg/mL. In data set [2], the Papp A→B at 100 µM came out at 4.21 ×10⁻⁶ cm/s.
At Substance-K receptor, `O=C(NC1(C(=O)N[C@@H](Cc2ccccc2)C(=O)NCC2CCN(CC3CCOCC3)CC2)CCCC1)c1ccc(-n2cccc2)cc1F` gave a Ki of 3.24 nM. Besides, in data set [3], the Papp is 0.66 ×10⁻⁶ cm/s. In addition, the solubility in data set [1] is over 2860 µg/mL. For the same compound, in data set [2], the Papp A→B at 100 µM turned out to be 13.8 ×10⁻⁶ cm/s.
Take `CCCCc1ccc(C(=O)NC2(C(=O)N[C@@H](Cc3ccccc3)C(=O)NCC3CCN(CC4CCOCC4)CC3)CCCC2)cc1`: in data set [1], the solubility is over 2410 µg/mL.
On the same count and under the same terms, in the case of `CCCCc1ccc(C(=O)NC2(C(=O)N[C@@H](Cc3ccccc3)C(=O)NCC3CCN(CC4CCOCC4)CC3)CCCC2)nc1` it was over 6600 µg/mL.
At Substance-K receptor, `O=C(NC1(C(=O)N[C@H](CCCN2CCN(CC3CCOCC3)CC2)Cc2ccccc2)CCCC1)c1ccc2ccccc2c1` showed a Ki of 0.324 nM. For the same compound, in data set [3], the Papp came to 5.96 ×10⁻⁶ cm/s. In data set [1], the concentration in solution (solubility) was 1570 µg/mL (≈ 2.57 mM). In addition, in data set [2], the Papp A→B at 100 µM stood at 14.7 ×10⁻⁶ cm/s.
`O=C(NC1(C(=O)N[C@H](CCCN2CCN(CC3CCOCC3)CC2)Cc2ccccc2)CCCC1)c1cc2ccccc2cn1`: at Substance-K receptor, the affinity, expressed as Ki, was 2.04 nM. For the same compound, the Papp in data set [3] worked out at 15.5 ×10⁻⁶ cm/s. In addition, in data set [1], the concentration in solution (solubility) was 2800 µg/mL (≈ 4.58 mM). Moreover, the Papp A→B at 100 µM in data set [2] was 25.2 ×10⁻⁶ cm/s.
Consider `COc1cc2ccccc2cc1C(=O)NC1(C(=O)N[C@H](CCCN2CCN(CC3CCOCC3)CC2)Cc2ccccc2)CCCC1`, for which, at Substance-K receptor, affinity was put at a Ki of 8.32 nM. Besides, the Papp in data set [3] came to 11.9 ×10⁻⁶ cm/s. The same compound yielded a solubility in data set [1] of 3070 µg/mL (≈ 4.79 mM). The Papp A→B at 100 µM in data set [2] worked out at 13.6 ×10⁻⁶ cm/s.
As for `COc1c(C(=O)NC2(C(=O)N[C@H](CCCN3CCN(CC4CCOCC4)CC3)Cc3ccccc3)CCCC2)ccc2ccccc12`, the inhibition constant (Ki) at Substance-K receptor is 44.7 nM. Further, in data set [3], the Papp came to 6.77 ×10⁻⁶ cm/s. The same compound came in with a solubility in data set [1] of 1910 µg/mL (≈ 2.98 mM). For the same compound, the Papp A→B at 100 µM in data set [2] is 11.7 ×10⁻⁶ cm/s.

The values above are taken from ChEMBL document CHEMBL1681734, “hNK2 receptor antagonists. The use of intramolecular hydrogen bonding to increase solubility and membrane permeability” (Bioorg Med Chem Lett, 2011).
